Experiments:
[1] = system: MPTP induced Parkinsonism in zebrafish; test: MPTP induced Parkinsonism in zebrafish, locomotor activity; assay type: in vivo; settings: adult zebrafish, MPTP model; oral in feed pellets; may reflect L-DOPA-induced dyskinesia; FIG. 4
Protocol: The methodology described by Bretaud et al (Neurotoxicol Teratol. 2004 November-December; 26(6), 857-64) was used to study parkinsonism in zebrafish. For MPTP (1-methyl-4-phenyl-1,2,3,6-tetrahydropyridine) induced Parkinsonism, adult zebrafish were injected with 3 μl of 60 μg/g of MPTP as intramuscular injection along the lateral muscles.
Compound B of Formula I or L-DOPA were dosed orally by mixing with the fish feed pellets. Fishes were conditioned to consume three pellets a day. To prepare feed containing 1 ng of Compound B of Formula I, stock of 1 ng/μl Compound B was diluted to 10 μl in Ringer's solution and distributed to 3 fish feed pellets (‘3.3 μl per pellet). Prior to adding Compound B, fish feed pellets were dried at 37° C. for 1 hour to remove moisture. Post addition of Compound B solution and absorption by the pellet, pellets were stored at 4° C. […] Concentration of compounds dosed was controlled by number of pellets and the quantity of compound per pellet. […]
Locomotor Activity: The observation tank was divided into four zones by drawing three vertical lines at equal distances, at a length of 6.25 cm per zone. The number of lines that adult zebrafish crossed over a period of 5 minutes was counted. Fishes were allowed to acclimatize in measurement tanks for a period of 30 minutes before readings were taken. […]

[2] = system: MPTP induced toxicity on neuronal cells; test: MPTP induced Parkinsonism in zebrafish, brain pathology (degenerated neurons in mid brain smear); assay type: in vivo; settings: H&E
Protocol: Fishes were conditioned to consume three pellets a day. […] To prepare fish feed pellets containing L-DOPA 4 μl of 1 ng/μl of L-DOPA stock solution was distributed across 3 fish feed pellets ‘1.3 μl/pellet. Fish were fed, three pellets a day. Concentration of compounds dosed was controlled by number of pellets and the quantity of compound per pellet. Feed pellets without drug but with vehicle were used as placebo or control.
Brain Pathology: Fish were anesthetized with 15° C. water and sacrificed by a cut between the brain and the spinal cord. Brain was dissected and portions of mid brain were removed with a pin and knife. The brain tissue was smeared on a glass slide and stained with Haematoxylin & Eosin respectively for 2 minutes each followed by water washes. Slides were viewed at 45× magnification using Labomed LX 400 microscope. The number of degenerated neurons were counted for three fields per smear. […]

N[C@@H](Cc1ccc(O)c(O)c1)C(=O)O [L-DOPA]
movement behavior on continued treatment (beyond day 3) [1]: heightened movement behavior | brain pathology (brain smear appearance, effect on MPTP induced toxicity on neuronal cells) ([2]; FIG. 5): did not have significant effect | change in neurodegenerative cell number compared to MPTP group ([2]; day 8, FIG. 5): non-significant decrease

From US12121515B2, “Piperidine urea derivatives as soluble epoxide hydrolase inhibitors” (NeuroPn Therapeutics, Inc., priority 2021, dated 2024)
